The record followed here is patent publication US20230123585A1, “COMPOSITIONS AND METHODS FOR TREATING OR PREVENTING CANCER USING DEUBIQUITINASE INHIBITORS” (The University of Chicago, priority 2020, published 2023).

SMILES strings stand for the structures.

For assay [1], the system named is pluripotency transcripts in R-WT mESCs. The assay is described as follows: Turnover of m^6A-labeled pluripotency transcripts by qPCR after actinomycin D in mESCs. The settings on record: 10 μM PD0325901, 5 μg/ml actinomycin D. Format: cell-based, mouse. From the text:
FIGS. 4A-4E: Phosphorylation of METTL3/WTAP by ERK Facilitates Resolution of Pluripotency. (A) LC-MS/MS quantification of the m^6A/A ratio in mRNA of mESC stable transfectants. (B) Representative flow cytometry analyses of mESC stable transfectants for the activity of alkaline phosphatase (AP) and expression of stage-specific embryonic antigen-1 (SSEA-1). (C) qPCR analysis of pluripotency genes in R-3A2A versus R-WT mESCs. (D) Relative levels of Nanog, measured by qPCR, at the indicate times after 5 μg/ml actinomycin D treatment. mRNA levels were monitored in R-WT (black), R-WT with 10 μM PD0325901 (green), and R-3A2A (red) mESC. (E) qPCR analysis for pluripotency and differentiation markers expression after 8 days of embryonic body (EB) induction. Error bars indicated SD (n=3). (See also FIG. 12.)
FIGS. 12A-12I: Phosphorylation of METTL3/WTAP by ERK Facilitates Resolution of Pluripotency. (A) Representative phase-contrast microscopy showing colony size of R-3A2A versus R-WT mESC cells. (B) Cell growth of R-WT and R-3A2A mESCs were measured by sulforhodamine B dye (SRB assay). […] (D-H) Relative levels of Zfp42, Klf2, Sox2, Lefty1, and Pou5f 1, measured by qPCR, at the indicate times after 5 μg/ml actinomycin D treatment. mRNA levels were monitored in R-WT (black), R-WT with 10 μM PD0325901 (green), and R-3A2A (red) mESCs. […]
On the technique in general: Quantitative PCR measures a nucleic acid by following its amplification.

For assay [2], the system named is m^6A methyltransferase complex in HCT-116 cells. The assay is described as follows: Immunoblot of m^6A methyltransferase complex in HCT-116 cell lysates. The assay is classed as cell-based. The settings on record: 8 h, 10 μM PD0325901 or 0.1 μM trametinib. The protocol:
FIGS. 14A-14I: Phosphorylation of the m^6A Methyltransferase Complex May Affect Tumorigenesis. (A) Oncogenes (promote cancer), tumor suppressors (inhibit carcinogenesis), and drivers (important in cancer development, either oncogene or tumor suppressor) were used as classifiers by Cancermine database to identify the potential role of METTL3 from the published literature. (B) LC-MS/MS quantification of the m^6A/A ratio in mRNA of melanoma cell lines. (C) After 8 h treatment with 10 μM PD0325901 or 0.1 μM tramentib, cell lysates from HCT-116 cells were analyzed by immunoblot. (D) Kaplan-Meier analysis of overall survival time based on METTL3 expression from the skin cutaneous melanoma (SKCM) dataset at The Cancer Genome Atlas (TCGA). […] The ubiquitination of METTL3 was detected by IP with anti-METTL3 and immunoblot with anti-HA. (F) After 8 hr treatment with 10 μM EOAI3402143 (EOAI) or 30 μM vialinin A, cell lysates from HCT-116 cells were analyzed by immunoblot. […] (I) LC-MS/MS quantification of the m^6A/A ratio in mRNA of breast cancer cell lines.
Immunoprecipitation, immunoblotting, and in vitro kinase assay. […] Primary antibodies were detected by HRP-linked secondary antibodies (Cell Signaling) together with SuperSignal West Pico Plus chemiluminescent substrate (Thermo Scientific) and imaged in a FluorChem R system (ProteinSimple).
In general terms: In western blotting, separated proteins are transferred to a membrane and probed.

For `O=C(NOC[C@H](O)CO)c1ccc(F)c(F)c1Nc1ccc(I)cc1F` [PD0325901], in assay [1], the “turnover of m^6A-labeled pluripotency transcripts after transcription arrest” value is given as “delayed turnover”. In addition, the “m^6A methyltransferase complex level” value in assay [2] is “decreased”.
